What was measured:
[1] = Rotation behavior after nigral EYFP control AAV and CNO; format: in vivo, mice; conditions: for rotation behavior (FIG. 6C): AAV8R12-G88P3-EYFP; for rotation behavior (FIG. 6C) / rotation behavior (FIG. 7C): n=5; for rotation behavior (FIG. 7C): AAV8R12-G88P7-EYFP
Description: Mice were anesthetized with sodium pentobarbital (Nembutal; 80 mg/kg, i.p.), and then placed into a stereotaxic device (KOPF). Eye cream was applied on both corneas to avoid dehydration. The skull above the targeted areas was thinned with a dental drill and carefully removed. Injections were conducted with a 10 μL syringe connected to a 33-Gauge needle (Neuros; Hamilton), using a microsyringe pump (Legato 130, KD Scientific). A total volume of 200 nL virus was injected into the SNr at a speed of 20 nL/min. The coordinates for the SNr were 3.4 mm posterior, 1.3 mm lateral, 4.8 mm ventral to the bregma.
Mice that were used in the behavioral experiments were then implanted with guide cannulas (KOPF) unilaterally aiming at the dorsomedial striatum (0.5 mm anterior, 1.5 mm lateral, 3.5 mm ventral to the bregma). The cannulas were fixed to the skull with dental cement. Stainless steel obturators were inserted into the guide cannulas and were replaced every other day to maintain the patency until infusions were made. Mice were allowed to recover from the surgery for at least 3 weeks before further studies.
Mice were individually handled for 10-20 seconds per day for at least 5 days to habituate them to the experimenter. The open field test was conducted in a test apparatus (50 cm×50 cm×50 cm) with an HD digital camera (Sony) positioned above the arena. On day one, mice were habituated to the apparatus for 10 minutes. On day 2, mice were administrated saline (0.1 mL i.p. or 200 nL intracranially [i.c.] through the guide cannulas). On day 3, mice were administrated with Clozapine-N-oxide (CNO, Hello Bio, HB1807; 0.3 mg/kg i.p. or 200 nL at 100 μM i.e.). All behavioral tests were conducted 30 minutes after injection. During the test, mice were allowed to freely explore the apparatus for 10 minutes. The behavioral data were analyzed with ANY-maze software (Stoelting Co.).

c-Fos+ cells in the SNr = assay: c-Fos staining in the SNr after CNO; format: in vivo, mice; conditions: AAV8R12-G88P3-HA-hM3Dq
[2] = Locomotion test in naive macaques after CNO; format: in vivo
Description: The locomotion tests for monkeys were conducted in a custom-made observation cage (100 cm×100 cm×100 cm). The top and front of the cage were made of toughened glass in order to gain a clear view for behavioral recording. Monkeys were habituated to the observation cage by placing them inside for 30 minutes on three separate days.
For monkeys injected with AAV8R12-G88P3-HA-hM3Dq, CNO was intracranially infused into the dorsomedial caudate through the recording chamber. To infuse while the animal was awake, the monkey was trained to sit in a primate chair specially designed with its head fixed to the primate chair by a mask made of thermoplastic materials. Injections were conducted through a 33-Gauge needle connected to a 250 μL syringe via a polyethylene pipe (Hamilton, Neuros). […] The needle was held for 5 minutes for drug diffusion before retraction. […] Videos capturing the subjects' behavior were recorded for at least 90 minutes. Animal behaviors from 30-90 minutes after saline/CNO infusion were further analyzed and quantified.
For rotation analysis, only movements that occurred lower than 30 cm on the z-axis were counted. To determine the direction of the rotation, we first computed the center for the rotation data in the x-y plane as (x0, y0) by averaging all data points, and then we computed the angle relative to (x0, y0) for each time point by the following formula:
where θi represents the rotating angle at time i, and (xi, yi) represents the x-y coordinate at time i. We then calculated the change of rotating angle as Δθi=θi−θi-1. For right nigral injections, when Δθ<0, the direction of the rotation was anticlockwise and was labeled as a contraversive rotation. When Δθ>0, the direction of the rotation was clockwise and was labeled as an ipsiversive rotation. The raw data were analyzed and plotted through a custom R package. Code is available on Github (github.com/chenyef/PD_ana/blob/main/Behavior_ana.txt).

hM3Dq = target: T1, hM3Dq (Homo sapiens, UniProt P20309, A239G/Y149C); assay: Electrophysiological recording in caudate after CNO infusion, AAV8R12-G88P3-HA-hM3Dq macaques; format: in vivo
T1 construct: HA (N); expressed in transfected cells; host or cells: neurons (striatal D1-MSNs, some SNr neurons) of C57BL/6J mice or cynomolgus macaques transduced by nigral AAV8R12-G88P3-HA-hM3Dq
Description: Electrophysiological recording was performed through a recording chamber while the monkey was anesthetized. Neural responses were recorded by a 16-channel linear probe (Plexon Inc, Uprobe) driven by a mechanical microdrive (Alpha Omega, FlexMT). Signals were passed through a head stage (Plexon Inc, HST/16V-G20 LN) and then split and filtered between 300 Hz and 5 kHz to identify spiking activity with an amplifier system (Plexon Inc, OmniPlex). Detected spikes were then sorted by commercially available software (Plexon Inc, Offline Sorter) for further analysis. To quantify the effect of CNO/DCZ injection, neural activity was recorded for 60 minutes following CNO/DCZ injection. The response time-course for each channel was obtained by counting the spikes within every 10-minute window and then normalizing to the maximal.
To determine the effect of CNO/DCZ injection on the direction of signal change, we performed Pearson correlation between neural responses and time using the ‘corr’ function in Matlab, which generates the correlation coefficient ‘r’ and significant level ‘p’. A neuron was considered to have “Increased” activity when r>0 and p<[…]; and considered to have “Decreased” activity when r<0 and p<0.05. Otherwise, neurons were considered to be “Unchanged” in their neural activities. The responses of all increased neurons were then averaged after being normalized by the maximal response (Crowe et al., 2014; Dai and Wang, 2018; Hirokawa et al., 2019) following CNO/DCZ injection, and then plotted as a function of time to generate the normalized population response.

[3] = monkey CM045, 34 cells in caudate

T1 sequence (P20309 whole entry Y149C/A239G, the tested form may be a part): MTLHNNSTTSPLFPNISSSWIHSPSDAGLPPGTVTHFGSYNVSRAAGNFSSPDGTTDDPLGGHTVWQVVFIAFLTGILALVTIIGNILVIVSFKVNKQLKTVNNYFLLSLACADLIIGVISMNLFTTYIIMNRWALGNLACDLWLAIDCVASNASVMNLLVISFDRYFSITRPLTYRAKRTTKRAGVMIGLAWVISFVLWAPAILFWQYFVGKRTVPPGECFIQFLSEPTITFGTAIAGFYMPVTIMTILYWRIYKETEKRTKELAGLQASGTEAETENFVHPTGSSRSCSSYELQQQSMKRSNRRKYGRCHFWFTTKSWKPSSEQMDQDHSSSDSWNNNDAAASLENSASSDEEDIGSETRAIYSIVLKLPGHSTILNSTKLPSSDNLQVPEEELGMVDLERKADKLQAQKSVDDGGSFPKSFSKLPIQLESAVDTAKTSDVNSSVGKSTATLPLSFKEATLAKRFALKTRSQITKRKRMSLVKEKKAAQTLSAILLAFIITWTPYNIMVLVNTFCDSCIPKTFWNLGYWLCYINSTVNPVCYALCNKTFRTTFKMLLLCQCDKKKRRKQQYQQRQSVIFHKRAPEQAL

C[N+]1([O-])CCN(C2=Nc3cc(Cl)ccc3Nc3ccccc32)CC1 [CNO, clozapine N-oxide]
rotation behavior (FIG. 6C) ([1]; CNO i.p.): 44.72±10.89 | rotation behavior (FIG. 6C) ([1]; CNO intracranial): 61.39±5.774 | rotation behavior (FIG. 7C) ([1]; CNO i.p.): 46.88±7.497 | rotation behavior (FIG. 7C) ([1]; CNO intracranial): 34.55±7.536 | rotational behaviors, in words ([1]; animals that received the EYFP control vector named at the place): didn't induce rotational behaviors | c-Fos+ cells in the right SNr (c-Fos+ cells in the SNr; CNO intraperitoneal): significant increase | number of nigral c-Fos+ cells (c-Fos+ cells in the SNr; intracranial CNO infusions): No significant changes | immobile time (FIG. 11E) ([2]; naive macaques, n=3): 149.8±22.65 | percentage of contraversive and ipsiversive rotation (FIG. 11C) ([2]; naive macaques, n=3): 0.8384±0.4152 | speed of contraversive rotations (FIG. 11G) ([2]; naive macaques, n=3): 39.63±7.092 | speed of ipsiversive rotations (FIG. 11H) ([2]; naive macaques, n=3): 42.79±4.705 | time spending in the higher portion of the observing cages (FIG. 11D) ([2]; naive macaques, n=3): 60.43±4.542 | total distance (FIG. 11F) ([2]; naive macaques, n=3): 59.48±18.65 | behavioral changes in naïve monkeys, in words ([2]; no viral injections): did not induce significant behavioral changes | cells activated (FIG. 12L) (hM3Dq; 34 total cells in the caudate): 67.6% | cells inactivated (FIG. 12L) (hM3Dq; 34 total cells in the caudate): 2.9% | cells unchanged (FIG. 12L) (hM3Dq; 34 total cells in the caudate): 29.4% | cells activated (FIG. 12C) (hM3Dq; [3]): 70.6% | cells inactivated (FIG. 12C) (hM3Dq; [3]): 8.8% | cells unchanged (FIG. 12C) (hM3Dq; [3]): 20.6%
